Activity calls are given as the source filed them. The calls are words filed in the database; no cut-off is given here.
Assays:
Saccharomyces cerevisiae [1] = assay: Antiprion activity against yeast SB34 prion protein [URE3] at 50 nmole by colorimetric assay
Saccharomyces cerevisiae [2] = assay: Antiprion activity against yeast STRg6 prion protein [PSI+] at 50 nmole by colorimetric assay

Row | Structure (SMILES) | antiprion activity (active/not active) (Saccharomyces cerevisiae [1]) | antiprion activity (active/not active) (Saccharomyces cerevisiae [2])
1 | Nc1cccc2c1c(N)nc1ccccc12 | Active | Active
2 | Nc1ccc2c(c1)c(N)nc1ccccc12 | inactive | Active
3 | Nc1nc2ccccc2c2c1CC=CC2 | Active | Active
4 | COc1ccc(CCNc2nc3ccccc3c3ccccc23)cc1OC | inactive | inactive
5 | Nc1nc2ccccc2c2cc([N+](=O)[O-])ccc12 | inactive | Active
6 | Nc1nc2ccccc2c2ccccc12 | Active | Active
7 | Nc1nc2ccccc2c2ccc(F)cc12 | Active | Active
8 | COc1cc(OC)c2nc(N)c3ccccc3c2c1 | inactive | Active
9 | Nc1nc2ccccc2c2c1CCCC2 | Active | Active
10 | Nc1nc2cccnc2c2ccccc12 | inactive | inactive
11 | Cc1ccc2c(N)nc3ccccc3c2c1 | Active | Active
12 | Nc1nc2ccccc2c2cnccc12 | inactive | inactive
13 | Nc1nc2ccccc2c2cccc(F)c12 | Active | Active
14 | CN[S+]([O-])c1ccc2c(N)nc3ccccc3c2c1 (stereo not given) | inactive | inactive
15 | Nc1nc2ncccc2c2ccccc12 | inactive | inactive
16 | Nc1nc2ccccc2c2cccc([N+](=O)[O-])c12 | Active | Active
17 | CC[C@H](CO)Nc1nc2ccccc2c2ccccc12 | inactive | inactive
18 | Nc1nc2ccccc2c2cc(F)ccc12 | Active | Active
19 | Nc1nc2ccncc2c2ccccc12 | inactive | inactive
20 | Nc1nc2ccccc2c2ccc([N+](=O)[O-])cc12 | Active | Active
21 | Nc1nc2ccccc2c2ccc(C(F)(F)F)cc12 | Active | Active
22 | [N-]=[N+]=Nc1ccc2c(c1)c(N)nc1ccccc12 | Active | Active
23 | Nc1nc2ccc(OC(F)(F)F)cc2c2ccccc12 | inactive | Active
24 | Cc1ccc2nc(N)c3ccccc3c2c1 | inactive | Active
25 | Cc1ccc2c(N)nc3ccccc3c2n1 | inactive | inactive

— ChEMBL document CHEMBL3286145, “Evaluation of the antiprion activity of 6-aminophenanthridines and related heterocycles” (Eur J Med Chem, 2014)
